From patent US20220348565A1, “PHARMACEUTICAL COMPOUNDS” (SENTINEL ONCOLOGY LIMITED, priority 2019, published 2022)

System: U87MG cells
Test: Mitotic phenotype study in U87MG cells
Type: cell-based, human
Settings: 0.03 μM, listed as A-2
Description: Distinct mitotic phenotypes are induced following inhibition of PLK1 and PLK4 in cells. […] Centriole assembly is controlled by PLK4, with inhibitors inducing a multipolar spindle phenotype due to centrosome defects which results in abnormal cyokinesis (Wong et al., 2015. Science 348(6239); 1155-1160). Cells were plated at 10 000/well in 96-well plates and incubated overnight. The following day atropisomer A-2 stocks in DMSO were diluted in medium then added to cells with a maximum final DMSO concentration on cells of 0.2%. Cells were incubated with the compound for 24 hours then fixed in 3.7% formaldehyde. Cells were permeabilised with 0.1% Triton X-100 then incubated with anti-phospho-histone H3 (Ser10) antibody (Abcam). The cells were washed with PBS then incubated with AlexaFluor 488 labelled goat anti-rabbit IgG (Invitrogen) in the presence of 4 ug/mL Hoechst 33342 (Invitrogen). Cells were washed in PBS then imaged on an Arrayscan VTi HCS instrument using the Target Activation V4 Bioapplication. A user-defined threshold was applied to identify mitotic cells based on the intensity of phospho-histone H3 staining. In a separate study, following the above protocol and using single compound concentrations of 0.03 μM for each of atropisomer A-1 and atropisomer A-2, the frequency of observed mitotic phenotypes in U87MG cells was manually assessed and classified into the following phenotypes: non-congressed chromosomes, multipolar spindles/abnormal cytokinesis, monopolar spindles, normal prometaphase, normal metaphase for each of A-1 and A-2.

CN(C)CCNC(=O)c1ccc(-c2ccc(-c3ccc(Cl)cc3)n2-c2ccccc2C(F)(F)F)cc1 (single isomer, unassigned) [Atropisomer A-2, 4-[5-(4-chlorophenyl)-1-[2-(trifluoromethyl)phenyl]pyrrol-2-yl]-N-[2-(dimethylamino)ethyl]benzamide]
cells with abnormal cytokinesis: 70%
cells with non-congressed chromosomes: 13%
cells with normal mitotic phenotype: 17%
